Results published in patent US20240310368A1, “DETECTION KIT FOR CATECHOLAMINES AND METABOLITES THEREOF IN PLASMA/URINE AND DETECTION METHOD THEREOF” (Calibra Scientific, Inc., priority 2023, published 2024).

What was measured:
[1] = Acceleration test of plasma samples with stabilizers (30° C. for 1.5 days, against control plasma stored at −95° C. to −65° C.), LC-MS/MS Area/IS Area
Description: Samples were collected in EDTA-anticoagulant blood collection tubes and then rapidly subjected to […] centrifugation at 2-8° C. to separate plasma. 0.95 mL of the plasma was transferred into centrifuge tubes. After 50 μL of the stabilizer was added for uniform mixing, the plasma samples were stored by refrigeration or freezing.
• (1) 500 μL of plasma/urine samples to be tested were taken, and 50 μL of the internal standard solution and 500 μL of the buffer solution were sequentially added for vertex mixing to obtain diluted samples. • (2) The magnetic medium composite material suspension was subjected to full vortex treatment to reach a suspension state, and then subsequent operation was performed. • (3) Different reagents were added into wells of a preprocessing plate according to the follow operation: adding 200 μL of the magnetic medium composite material suspension in column 1, adding 500 μL of the balance solution in column 2, adding 850 μL of the diluted samples in column 3, adding 500 μL of the balance solution in column 4, adding 200 μL of a rinsing solution in column 5, and adding 100 μL of the elution solution in column 6. • (4) An extraction operation procedure was carried out, as shown in Table 5.
Each group of the plasma samples were stored at 30° C. for 1.5 days, and plasma without addition of any compounds stored at −95° C. to −65° C. was used as a control. […] The stabilizing effect of the single-component stabilizers on the plasma samples was investigated.
The stabilizers were mixed with plasma (the volume ratio of the stabilizers to plasma samples was 1:19), and high concentration plasma samples and low concentration plasma samples were prepared by the method provided in Example 1.
With plasma stored at −95° C. to −65° C. as a control, the above plasma samples were separately stored at 30° C. for 1.5 days to investigate the stability. […]

[2] = pH adjustment ability of urine diluents to standard products and urine samples (pH test papers); type: physicochemical, human; details: 20 μL urine + 480 μL diluent + 50 μL internal standard solution + 500 μL buffer solution
Description: In the present example, standard products of catecholamines in urine and urine samples from different sources (Sample 1 to Sample 6 are urine samples with different pH values) were selected to carry out an experiment. The urine samples were collected within 24 h by the method provided in Example 1, 20 μL of the urine samples were taken, 480 μL of urine diluents shown in Table 30 were added, respectively, then vortex mixing was performed, and 50 μL of an internal standard solution and 500 μL of a buffer solution were sequentially added to obtain urine samples to be tested. Then, pH test papers were used to detect whether the urine samples to be tested were neutral. The pH adjustment ability of different urine diluents to standard products and samples was investigated.
However, some samples are still acidic or alkaline. Thus, ammonium acetate was added on the basis of the formic acid, and different proportions of the formic acid and the ammonium acetate were investigated.

SMILES: O=CO [formic acid]
- Ratio (Area/IS Area) E ([1]; plasma at a high concentration level, plasma containing 0.5% of the acid, control plasma 0.624): 0.295
- Ratio (Area/IS Area) NE ([1]; plasma at a high concentration level, plasma containing 0.5% of the acid, control plasma 1.522): 0
- Ratio (Area/IS Area) DA ([1]; plasma at a high concentration level, plasma containing 0.5% of the acid, control plasma 2.27): 0
- Ratio (Area/IS Area) E ([1]; plasma at a high concentration level, plasma containing 2.0% of the acid, control plasma 0.624): 0
- Ratio (Area/IS Area) NE ([1]; plasma at a high concentration level, plasma containing 2.0% of the acid, control plasma 1.522): 0
- Ratio (Area/IS Area) DA ([1]; plasma at a high concentration level, plasma containing 2.0% of the acid, control plasma 2.27): 0
- Ratio (Area/IS Area) E ([1]; plasma at a low concentration level, plasma containing 0.5% of the acid, control plasma 0.079): 0
- Ratio (Area/IS Area) NE ([1]; plasma at a low concentration level, plasma containing 0.5% of the acid, control plasma 0.219): 0
- Ratio (Area/IS Area) DA ([1]; plasma at a low concentration level, plasma containing 0.5% of the acid, control plasma 0.233): 0
- Ratio (Area/IS Area) E ([1]; plasma at a low concentration level, plasma containing 2.0% of the acid, control plasma 0.079): 0
- Ratio (Area/IS Area) NE ([1]; plasma at a low concentration level, plasma containing 2.0% of the acid, control plasma 0.219): 0
- Ratio (Area/IS Area) DA ([1]; plasma at a low concentration level, plasma containing 2.0% of the acid, control plasma 0.233): 0
- stabilizing effect on catecholamines in plasma ([1]; single components as stabilizers): no obvious stabilizing effect
- pH adjustment ability of urine diluent to standard products and samples [2]: uniformly adjust most of samples to neutral
